From ChEMBL document CHEMBL1146961, “Analogues of N-hydroxycinnamoylphenalkylamides as inhibitors of human melanocyte-tyrosinase” (Bioorg Med Chem Lett, 2006)

system: Rattus norvegicus; test: Toxicity in rat at 2 g/kg, po; type: organism-based; details: in vivo, 2000 mg/kg

Question: With `O=C(/C=C/c1ccc(O)c(O)c1)NCCc1ccc(O)cc1` as the molecule, how does the Activity read?
Answer: The Activity was “Not Active”.

Question: For `O=C(CCc1ccc(O)c(O)c1)NCCc1ccc(O)cc1`, which Activity is on record?
Answer: The Activity was “Not Active”.

Question: `O=C(CCc1ccc(O)cc1)NCCc1ccc(O)cc1` was tested. Which Activity did it give?
Answer: Its Activity is “Not Active”.

system: Radical scavenging activity; test: DPPH radical scavenging activity at 100 uM; type: functional; details: not given

Question: How did the Activity turn out when `O=C(/C=C/c1ccc(O)c(O)c1)NCCc1ccc(O)cc1` was run?
Answer: The Activity was 40%.

Question: With `COc1cc(/C=C/C(=O)NCCc2ccc(O)c(O)c2)ccc1O` as the molecule, how does the Activity read?
Answer: Its Activity is 60%.

Question: For `COc1cc(CNC(=O)/C=C/c2ccc(O)c(O)c2)ccc1O`, which Activity is on record?
Answer: The Activity was 60%.

Question: With `O=C(/C=C/c1ccc(O)c(O)c1)NCCc1ccc(O)c(O)c1` as the molecule, how does the Activity read?
Answer: Its Activity is 60%.
